According to patent US10219513B2, “Safening 4-amino-3-chloro-6-(4-chloro-2-fluoro-3-methoxyphenyl)-5-fluoropyridine-2-carboxylic acid compositions in Brassica species and methods of use thereof” (Dow AgroSciences LLC, priority 2016, dated 2019):

What was measured:
[1] = tested on: Brassica napus (all varieties of canola and oilseed rape, BRSNN); assay: Greenhouse postemergence application, visual injury after 20-22 d, BRSNN
Description: (§1) Seeds of the desired test plant species were planted in Sun Gro MetroMix® 306 planting mixture, which typically has a pH of 6.0 to 6.8 and an organic matter content of about 30 percent, in plastic pots with a surface area of 103.2 square centimeters (cm^2). […] The plants were grown for 7-36 days (d) in a greenhouse with an approximate 14-hour (h) photoperiod which was maintained at about 23° C. during the day and 22° C. during the night. Nutrients and water were added on a regular basis and supplemental lighting was provided with overhead metal halide 1000-Watt lamps as necessary. The plants were employed for testing when they reached the second or third true leaf stage.
(§2) An aliquot of formulated benzyl 4-amino-3-chloro-6-(4-chloro-2-fluoro-3-methoxyphenyl)-5-fluoropyridine-2-carboxylate (florpyrauxifen-benzyl; 300 grams active ingredient per liter (g ai/L) suspension concentrate (SC)) was placed in a 25 mL glass vial and diluted in a volume of 1.25% (v/v) aqueous Agri-dex crop oil concentrated to obtain a stock solution. […] The concentrated stock solutions were diluted with an aqueous mixture of 1.25% v/v of aqueous Agri-dex crop oil concentrate to provide the appropriate application rates. Compound requirements are based upon a 12 milliliter (mL) application volume at a rate of 187 liters per hectare (L/ha). Stock solutions of the formulated materials were prepared following the same procedure. Spray solutions of the compound mixtures were prepared by adding the stock solutions to the appropriate amount of dilution solution to form a 12 mL spray solution. Formulated compounds were applied to the plant material with an overhead Mandel track sprayer equipped with 8002E nozzles calibrated to deliver 187 L/ha over an application area of 0.503 square meters (m^2) at a spray height of 18 inches (43 centimeters (cm)) above average plant canopy. Control plants were sprayed in the same manner with the solvent blank.
(§3) The treated plants and control plants were placed in a greenhouse as described above and watered by sub-irrigation to prevent wash-off of the test compounds. After 20-22 d, the condition of the test plants as compared with that of the control plants was determined visually and scored on a scale of 0 to 100 percent where 0 corresponds to no injury and 100 corresponds to complete kill. Colby's equation was used to determine the herbicidal effects expected from the mixtures.
(§4) Benzyl 4-amino-3-chloro-6-(4-chloro-2-fluoro-3-methoxyphenyl)-5-fluoropyridine-2-carboxylate (florpyrauxifen-benzyl, 300 g ai/L SC) was combined in two-, three-, and four-way mixtures with one or more of the following: clopyralid-olamine (as Lontrel™ 35A Herbicidal Concentrate), quinclorac (as Facet 75DF), isoxadifen-ethyl (100 g/L SC), cloquintocet-mexyl (120 g/L EC) or mefenpyr-diethyl (as mefenpyr-diethyl 15WP). The mixtures were applied to kale/Chinese kale (Brassica alboglabra, BRSAG), Juncea canola or brown mustard (Brassica juncea, BRSJU), rutabaga (Brassica napus var. napobrassica, BRSNA), all varieties of canola and oilseed rape (Brassica napus, BRSNN), Nexera™ canola (Brassica napus, BRSNN-NEX), winter oilseed rape (Brassica napus, BRSNW), Roundup Ready® canola (Brassica napus, RR-BRSNN), and turnip or Polish canola (Brassica rapa, BRSRR), and the phytotoxicity of the compositions was measured.
(§5) Colby's equation was used to determine the herbicidal effects expected from the mixtures evaluated in the described trials (Colby, S. R. Calculation of the synergistic and antagonistic response of herbicide combinations. Weeds 1967, 15, 20-22.).
(§6) The following equation was used to calculate the expected activity of mixtures containing two active ingredients, A and B: Expected=A+B−(A×B/100) • A=observed efficacy of active ingredient A at the same concentration as used in the mixture; • B=observed efficacy of active ingredient B at the same concentration as used in the mixture.

[2] = tested on: Brassica napus (Nexera canola, BRSNN-NEX); assay: Greenhouse postemergence application, visual injury after 20-22 d, BRSNN-NEX
Description: as §1, §2, §3, §4, §5, §6

[3] = tested on: Brassica napus (winter oilseed rape, BRSNW); assay: Greenhouse postemergence application, visual injury after 20-22 d, BRSNW
Description: as §1, §2, §3, §4, §5, §6

[4] = tested on: Brassica rapa (turnip or Polish canola, BRSRR); assay: Greenhouse postemergence application, visual injury after 20-22 d, BRSRR
Description: as §1, §2, §3, §4, §5, §6

[5] = tested on: Brassica napus (Roundup Ready canola, RR-BRSNN); assay: Greenhouse postemergence application, visual injury after 20-22 d, RR-BRSNN
Description: as §1, §2, §3, §4, §5, §6

[6] = isoxadifen-ethyl 5 g ai/ha alone
[7] = isoxadifen-ethyl 10 g ai/ha alone
[8] = isoxadifen-ethyl 20 g ai/ha alone
[9] = isoxadifen-ethyl 40 g ai/ha alone
[10] = postemergence application, greenhouse, application rate (g ai/ha) varies

CCOC(=O)C1=NOC(c2ccccc2)(c2ccccc2)C1 [Isoxadifen-ethyl, ethyl 4,5-dihydro-5,5-diphenyl-1,2-oxazole-3-carboxyalte]
0%: % Visual Injury Obs ([1]; BRSNN, 5 g ai/ha) | % Visual Injury Obs ([1]; BRSNN, 10 g ai/ha) | % Visual Injury Obs ([1]; BRSNN, 20 g ai/ha) | % Visual Injury Obs ([1]; BRSNN, 40 g ai/ha) | Obs % visual injury ([1]; BRSNN, partner alone 5 g ai/ha) | Obs % visual injury ([1]; BRSNN, partner alone 10 g ai/ha) | Obs % visual injury ([1]; BRSNN, partner alone 20 g ai/ha) | Obs % visual injury ([1]; BRSNN, partner alone 40 g ai/ha) | % Visual Injury Obs [1, 6] | % Visual Injury Obs [1, 7] | % Visual Injury Obs [1, 8] | % Visual Injury Obs [1, 9] | % Visual Injury BRSNN Obs [1, 10] | % Visual Injury Obs ([2]; BRSNN-NEX, 5 g ai/ha) | % Visual Injury Obs ([2]; BRSNN-NEX, 10 g ai/ha) | % Visual Injury Obs ([2]; BRSNN-NEX, 20 g ai/ha) | % Visual Injury Obs ([2]; BRSNN-NEX, 40 g ai/ha) | Obs % visual injury ([2]; BRSNN-NEX, partner alone 5 g ai/ha) | Obs % visual injury ([2]; BRSNN-NEX, partner alone 10 g ai/ha) | Obs % visual injury ([2]; BRSNN-NEX, partner alone 20 g ai/ha) | Obs % visual injury ([2]; BRSNN-NEX, partner alone 40 g ai/ha) | % Visual Injury Obs [2, 6] | % Visual Injury Obs [2, 7] | % Visual Injury Obs [2, 8] | % Visual Injury Obs [2, 9] | % Visual Injury BRSNN-NEX Obs [2, 10] | % Visual Injury Obs ([3]; BRSNW, 5 g ai/ha) | % Visual Injury Obs ([3]; BRSNW, 10 g ai/ha) | % Visual Injury Obs ([3]; BRSNW, 20 g ai/ha) | % Visual Injury Obs ([3]; BRSNW, 40 g ai/ha) | Obs % visual injury ([3]; BRSNW, partner alone 5 g ai/ha) | Obs % visual injury ([3]; BRSNW, partner alone 10 g ai/ha) | Obs % visual injury ([3]; BRSNW, partner alone 20 g ai/ha) | Obs % visual injury ([3]; BRSNW, partner alone 40 g ai/ha) | % Visual Injury Obs [3, 6] | % Visual Injury Obs [3, 7] | % Visual Injury Obs [3, 8] | % Visual Injury Obs [3, 9] | % Visual Injury BRSNW Obs [3, 10] | % Visual Injury Obs ([4]; BRSRR, 5 g ai/ha) | % Visual Injury Obs ([4]; BRSRR, 10 g ai/ha) | % Visual Injury Obs ([4]; BRSRR, 20 g ai/ha) | % Visual Injury Obs ([4]; BRSRR, 40 g ai/ha) | Obs % visual injury ([4]; BRSRR, partner alone 5 g ai/ha) | Obs % visual injury ([4]; BRSRR, partner alone 10 g ai/ha) | Obs % visual injury ([4]; BRSRR, partner alone 20 g ai/ha) | Obs % visual injury ([4]; BRSRR, partner alone 40 g ai/ha) | % Visual Injury Obs [4, 6] | % Visual Injury Obs [4, 7] | % Visual Injury Obs [4, 8] | % Visual Injury Obs [4, 9] | % Visual Injury BRSRR Obs [4, 10] | % Visual Injury Obs ([5]; RR-BRSNN, 5 g ai/ha) | % Visual Injury Obs ([5]; RR-BRSNN, 10 g ai/ha) | % Visual Injury Obs ([5]; RR-BRSNN, 20 g ai/ha) | % Visual Injury Obs ([5]; RR-BRSNN, 40 g ai/ha) | Obs % visual injury ([5]; RR-BRSNN, partner alone 5 g ai/ha) | Obs % visual injury ([5]; RR-BRSNN, partner alone 10 g ai/ha) | Obs % visual injury ([5]; RR-BRSNN, partner alone 20 g ai/ha) | Obs % visual injury ([5]; RR-BRSNN, partner alone 40 g ai/ha) | % Visual Injury Obs [5, 6] | % Visual Injury Obs [5, 7] | % Visual Injury Obs [5, 8] | % Visual Injury Obs [5, 9] | % Visual Injury RR-BRSNN Obs [5, 10]
